One may read the IC50 as the midpoint of a concentration-inhibition curve. A higher IC50 goes with a need for much substance. Usually ED50 stands for the midpoint of the dose-response relation.

Assay [1] has as its target T1, PAF receptor (human platelet plasma membrane) (Homo sapiens, UniProt P25105).
T1 construct: Platelet concentrates were obtained from a hospital blood bank; from tissue; host or cells: human platelets (hospital blood bank concentrates), lysed platelet membranes
Description: Inhibition of [^3 H]-PAF Receptor Binding. As to conditions: human platelet plasma membranes; [^3 H]-PAF 0.5 nM; 0° C., 1 hour, pH 7.0. The method, then:
(§1) Compounds of general formula I inhibit PAF-induced functions in both the cellular and tissue levels by changing the PAF binding to its specific receptor site. The ability of compounds of general formula I to inhibit the binding of PAF to its specific receptor binding site on human platelet plasma membranes was measured according to Example 150. The ability of compounds of general formula I to reverse the hypotension caused by an infusion of PAF in rats was measured according Example 151.
Inhibition of [^3 H]-PAF Receptor Binding
The inhibition of [^3 H]-PAF binding to human platelet plasma membrane by compounds of general formula I was determined by isotopic labelling and filtration techniques. Platelet concentrates were obtained from a hospital blood bank. These platelet concentrates (500-2500 ml.) were centrifuged at 800 rpm for 10 minutes in a SORVALL RC3B centrifuge to remove the red blood cells present. (The word SORVALL is a trade mark.) The supernatant was subsequently centrifuged at 3,000 rpm in a SORVALL RC3B centrifuge to pellet the platelets present. The platelet rich pellets were resuspended in a minimum volume of buffer (150 mM NaCl, 10 mM Tris, 2 mM EDTA, pH 7.5) and layered onto Ficoll-Paque gradients, 9 ml platelet concentrate to 2 ml Ficoll, and centrifuged at 1,900 rpm for 15 minutes in a SORVALL RT6000 centrifuge. This step removes the residual red blood cells and other nonspecific material such as lymphocytes from the preparation. The platelets which form a band between the plasma and the Ficoll were removed, resuspended in the above buffer and centrifuged at 3,000 rpm for 10 minutes in a SORVALL RT6000 centrifuge. […]
The assay was conducted by preparing a series of Tris-buffered solutions of the selected antagonist of predetermined concentrations. […] Each washed residue was dried under vacuum on a sampling manifold and placed into vials containing 20 ml of OPTIPHASE MP scintillation fluid and the radioactivity counted in a liquid scintillation counter. […]

For the next assay, the system named is PAF-induced hypotension. Briefly: Inhibition of PAF-Induced Hypotension in the Rat. In kind it is in vivo, rat (male Sprague-Dawley). To be noted: iv, i.v. bolus, PAF 100 ng/kg/min i.v. infusion, anaesthetised rats, read-out: ED50 (dose to cause a 50% reversal of the hypotensive PAF response). Here is the method:
as §1
Inhibition of PAF-Induced Hypotension in the Rat
Male Sprague-Dawley rats (300-350 g) were anaesthetised with a mixture of sodium pentobarbitone, 22.5 mg/kg and thiopental 62.5 mg/kg. Through a midline incision in the neck, the trachea was cannulated and the animals breathed spontaneously. A carotid artery was cannulated for the measurement of blood pressure and this signal was used to trigger a rate meter to measure heart rate. Both jugular veins were cannulated: one for the infusion of PAF and the other for the bolus administration of test compounds.
PAF, 100 ng/kg/min was infused i.v. until a sustained fall in mean blood pressure of 50 mmHg was achieved. […] The peak of this reversal was measured and the dose to cause a 50% reversal of the hypotensive PAF response (ED50) calculated by straight line interpolation and the results are presented in Table 2.

Structures are written as SMILES.

T1 sequence (P25105 whole entry): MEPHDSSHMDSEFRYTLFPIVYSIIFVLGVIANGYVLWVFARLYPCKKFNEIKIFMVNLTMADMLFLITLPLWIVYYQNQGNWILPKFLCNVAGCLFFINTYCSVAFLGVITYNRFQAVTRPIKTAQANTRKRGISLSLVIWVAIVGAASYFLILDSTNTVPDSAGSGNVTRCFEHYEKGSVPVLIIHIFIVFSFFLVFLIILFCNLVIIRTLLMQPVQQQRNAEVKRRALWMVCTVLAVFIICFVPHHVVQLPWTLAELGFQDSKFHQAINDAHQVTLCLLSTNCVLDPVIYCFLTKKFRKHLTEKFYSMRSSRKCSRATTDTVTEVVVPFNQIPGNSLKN

`CCOC(=O)[C@H](CC(C)C)NC(=O)CCCCCn1c(C)nc2cnccc21` [Example 1B, N-6-(2-methylimidazo[4,5-c]pyridin-1-yl)hexanoyl-L-leucine ethyl ester] came in with a half-maximal inhibitory concentration (IC50) in assay [1] of 15 nM. This lies in the double-digit nanomolar range. `CCOC(=O)[C@H](CC(C)C)NC(=O)CCCCCCCCCCn1c(C)nc2cnccc21` [Example 98B, N-11-(2-methylimidazo[4,5-c]pyridin-1-yl)undecanoyl-L-leucine ethyl ester]: the 50% inhibitory concentration (IC50) in assay [1] was 1 nM.

For the compound `CCOC(=O)[C@H](CC(C)C)NC(=O)CCCn1c(C)nc2cnccc21` [Example 11B, N-4-(2-methylimidazo[4,5-c]pyridin-1-yl)butanoyl-L-leucine ethyl ester], the IC50 in assay [1] turned out to be 3 nM. For the same compound, the median effective dose (ED50) in the assay on PAF-induced hypotension came to 0.0305 mg/kg. Consider `CCOC[C@H](CC(C)C)NS(=O)(=O)CCCn1c(C)nc2cnccc21` [Example 33B, N-4-(2-methylimidazo[4,5-c]pyridin-1-yl)propylsulphonyl-L-leucinyl ethyl ether], for which the 50% effective dose (ED50) in the assay on PAF-induced hypotension worked out at 0.0018 mg/kg.

Values taken from patent US5563151A, “Amino acid derivatives as paf-receptor antagonists” (British Biotech Pharmaceuticals limited, priority 1992, dated 1996).
